Data taken from US12492181B2, “Gem-disubstituted piperidine melanocortin subtype-2 receptor (MC2R) antagonists and uses thereof” (Crinetics Pharmaceuticals, Inc., priority 2019, dated 2025).

molecular target: T1, hMC2 receptor (crude hMC2R membranes from CRE-bla-CHO-K1 cells stably expressing hMC2 receptor and hMRAP accessory protein) (Homo sapiens, UniProt Q01718); test: hMC2 membrane binding assay ([125I]ACTH (1-39) Tyr23, SPA); conditions: displacement of 0.2 nM [125I]ACTH (1-39) Tyr23 from hMC2R membranes, 1.5 hours at room temperature; read-out: MC2R binding potency
T1 construct: crude membrane fractions
Method in brief: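 Ki values come from non-linear regression of SPA scintillation counts, with compounds displacing [125I]ACTH(1-39) Tyr23. Membranes come from CRE-bla-CHO-K1 cells stably expressing hMC2 receptor together with hMRAP. They are preincubated with WGA-coated PVT SPA beads in 50 mM HEPES pH 7.4 with 0.20% BSA, Mg2+, Ca2+ and protease inhibitors.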

T1 sequence (Q01718 whole entry): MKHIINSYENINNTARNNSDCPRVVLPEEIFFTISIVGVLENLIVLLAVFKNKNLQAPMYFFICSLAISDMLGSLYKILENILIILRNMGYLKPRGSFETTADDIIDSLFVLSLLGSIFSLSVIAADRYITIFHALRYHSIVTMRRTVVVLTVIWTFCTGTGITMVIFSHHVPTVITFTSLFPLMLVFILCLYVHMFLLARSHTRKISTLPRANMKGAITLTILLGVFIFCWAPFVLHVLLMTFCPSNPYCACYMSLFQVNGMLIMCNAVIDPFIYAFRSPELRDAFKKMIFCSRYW
T1 sequence (Q8TCY5 whole entry partner): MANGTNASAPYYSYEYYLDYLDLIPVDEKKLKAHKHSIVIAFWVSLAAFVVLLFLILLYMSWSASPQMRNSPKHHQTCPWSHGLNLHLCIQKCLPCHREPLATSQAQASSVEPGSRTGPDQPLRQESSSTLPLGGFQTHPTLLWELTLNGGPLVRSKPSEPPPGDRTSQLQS

Ki, < 10 nM:
COc1ccccc1-c1ccc(C2(NC(=O)[C@@H]3CCN(C)C3)CCN(c3ccc(C(F)(F)F)cc3C#N)CC2)cn1 [Compound 2-60, (3R)—N-{1-[2-cyano-4-(trifluoromethyl)phenyl]-4-[6-(2-methoxyphenyl)pyridin-3-yl]piperidin-4-yl}-1-methylpyrrolidine-3-carboxamide]
CCOc1ncccc1-c1ccc(C2(C(=O)N[C@@H](C)CNC)CCN(c3ccc(C(F)(F)F)cc3C#N)CC2)cn1 [Compound 1-314, 1-[2-cyano-4-(trifluoromethyl)phenyl]-4-{2′-ethoxy-[2,3′-bipyridin]-5-yl}-N-[(2S)-1-(methylamino)propan-2-yl]piperidine-4-carboxamide]
COc1ccccc1-c1ccc(C2(C(=O)N[C@H]3CCN(C)C3)CCN(c3ccc(C(F)(F)F)cc3C#N)CC2)nn1 [Compound 1-183, 1-[2-cyano-4-(trifluoromethyl)phenyl]-4-[6-(2-methoxyphenyl)pyridazin-3-yl]-N-[(3S)-1-methylpyrrolidin-3-yl]piperidine-4-carboxamide]
